# Data reported in patent publication US12029730B2, “Pharmaceutical composition for preventing or treating cancer, containing N-1H-benzimidazol-2-yl-3-(1H-pyrrole-1-yl)benzamide as active ingredient” (KOREA INSTITUTE OF RADIOLOGICAL & MEDICAL SCIENCES, priority 2018, dated 2024).
# Assays:
# Assay type in all cases: cell-based, human
# [1] = system: MCF7 cells; experiment: WST-8 cell viability assay, breast cancer cell line MCF7; conditions: 3.70, 11.11, 33.33 and 100 μM, FIG. 6
# Protocol: (§1) In addition, the cell line in this experiment was distributed from ATCC (American Type Culture Collection; Manassas, VA). Human-derived tumor cell lines, breast cancer cell lines MCF7 and T47D was cultured in DMEM medium containing 10% fetal bovine serum (FBS; HyClone, South Logan, UT) and 1% penicillin/streptomycin (Corning, NY, USA) at 37° C. and 5% CO2, and the BT549 breast cancer cell line was cultured in RPMI 1640 (Welgene, Daegu, Korea) as a medium used under the same conditions. Human-derived normal cell line MCF10A was cultured in DMEM/F12 (Invitrogen) medium containing 5% horse serum (Invitrogen), 1% penicillin/streptomycin, 20 ng/ml EGF (Peprotech, London, UK), […] (Sigma-Aldrich, MO, USA), 100 ng/ml cholera toxin (Cholera Toxin, Sigma-Aldrich) and 10 μg Insulin (Sigma-Aldrich) at 37° C. and 5% CO2.
# (§2) Briefly, MCF7 and MCF10A cells were seeded into 96-well plates, incubated for 24 hours, and then was treated with 42 inhibitor candidates. Among the compounds, the multi-AGC kinase inhibitor AT13148 was used as a positive control. Thereafter, the absorbance was measured at 450 nm using a Versamax microplate reader (Molecular Devices, CA, USA), and the results of the experiment were shown in FIG. 1A.
# (§3) In order to confirm whether the selected MKI-1 can kill only cancer cells, an experiment was performed by treating with MKI-1 and measuring whether the cell viability of breast cancer cell lines and normal cell lines was changed. WST-8 analysis (Cyto X™ cell viability assay kit, LPS solution, Daejeon, Korea) was performed according to the manufacturer's protocol. Cancer cells MCF7 and BT549 and normal cell line MCF10A cells were inoculated into a 96-well plate, cultured for 24 hours, and then treated with MASTL kinase inhibitors at various concentrations (3.70, 11.11, 33.33 and 100 μM). Thereafter, the absorbance was measured at 450 nm using a Versamax micro plate reader (Molecular Devices, CA, USA), and the results were shown in FIG. 6.
# [2] = system: BT549 cells; experiment: WST-8 cell viability assay, breast cancer cell line BT549; conditions: 3.70, 11.11, 33.33 and 100 μM, FIG. 6
# Protocol: as §1, §3
# [3] = system: AKT; experiment: Western blotting of AKT and GSK-3 phosphorylation in MCF7 cells; conditions: western blot, FIG. 5
# Protocol: 20 μg of protein was separated by SDS-PAGE electrophoresis and transferred to a PVDF membrane, and the following specific antibodies were used: rabbit polyclonal antibody MASTL (Abgent); phospho-ENSA (Ser67)/ARPP19 (Ser62) (#5240), ENSA (#11915S), cleaved PARP (Asp214) (#9541), AKT (#9272), phospho-AKT (ser473) (#9271), phospho-GSK-3α/β (Ser21/9) (#9331), phospho-p70S6K (The 288) (#9205) and phospho-Chk2 (Thr68) (#2661; Cell Signaling Technology, MA); p70S6K (sc-230; Santa Cruz Biotechnology, CA, USA), phospho-H3 (S10) (06-570, Merck, NJ); mouse monoclonal antibody caspase-2 (#2224S). In addition, mouse […] antibody β-actin (C4; Santa Cruz Biotechnology, CA, USA) was used as a loading control, it was washed with 1×PBS/0.1% Tween 20, and the binding protein was detected using HRP-binding secondary antibody and improved chemiluminescence detection system. The remaining conditions of Western blotting were the same as in Example 3, and the image of the band was obtained by Amersham Imager 600 system (GE Healthcare Life Science) or X-Ray film (AG, HealthCare, SC, USA) and it was shown in FIG. 5.
# [4] = system: MCF10A cells; experiment: WST-8 cell viability assay, normal cell line MCF10A; conditions: 3.70, 11.11, 33.33 and 100 μM, FIG. 6
# Protocol: as §1, §2, §3
# [5] = system: MCF7 cells; experiment: Colony formation analysis; conditions: MCF7, cultured 15 days, compared to DMSO, FIG. 7
# Protocol: Colony formation analysis was performed to confirm whether the selected MKI-1 can effectively kill cancer cells. First, breast cancer cells MCF7 (500-1000 cells) were cultured in a 60 mm culture plate, and after 24 hours, it was treated with MASTL kinase inhibitors (AT13148, MKI-1 and GKI-1), respectively and cultured for 15 days. Cells were fixed and stained with […] to which methanol was added to quantify the number of colonies, which was shown in FIG. 7.
# [6] = system: MCF7 cells; experiment: 3D culture spheroid formation; conditions: MCF7 3D culture, AT13148 2 μM, GKI-1 10 μM, MKI-1 10 μM, FIG. 9
# Protocol: 3D culture was performed according to the protocol of the manufacturing company TheWell Bioscience. It was inoculated into 24-wells containing a DMEM mixture containing 10,000 MCF7 cells in an MCF7 cell:hydrogel solution in a ratio of 1:3 (v/v) and VitroGel™ 3D-RGD diluted with 0.1% PBS in a ratio of 1:3 (v/v) of a hydrogel:diH2O. Thereafter, incubation was performed at 37° C. for 15 minutes to stabilize the VitroGel 3D-RGD hydrogel. To cover the hydrogel, the same volume of DMEM as the hydrogel was added, and the next day, the hydrogel was treated with a DMSO base drug containing DMSO, AT13148 (2 μM), GKI-1 (10 μM) and MKI-1 (10 μM). The medium was exchanged every 2 days for 14 to 20 days.
# [7] = system: MCF7 cells; experiment: Tumorsphere formation assay; conditions: MCF7, cultured 15 days, compared to DMSO, FIG. 8
# Protocol: A tumorsphere formation assay was performed in order to determine whether the selected MKI-1 can effectively reduce the formation of tumorsphere in cancer cells, Breast cancer cells MCF7 (2500-10000 cells) was suspended in serum-free DMEM/F12 (weIGENE) containing 1% penicillin, B-27 (1:50; invitrogen), 20 ng/mL epidermal cell growth factor (R&D Systems) and 20 ng/mL fibroblast growth factor (R&D Systems) and cultured on plates with low adhesion rate. After 24 hours, the cells were treated with MASTL kinase inhibitors (AT13148, MKI-1 and GKI-1), respectively, and cultured for 15 days, and then the diameter of the tumorsphere was measured and quantified, which was shown in FIG. 8.
smiles,measurement,setting,value
"NC[C@@](O)(c1ccc(Cl)cc1)c1ccc(-c2cn[nH]c2)cc1 [AT13148, reference compound]","cell viability, MCF7",[1],drastically reduced cell viability
same,"cell viability, BT549",[2],drastically reduced cell viability
same,activation of AKT / phosphorylated GSK-3,[3],strongly inhibited the activation of AKT
same,"cell viability, normal cell line MCF10A",[4],drastically reduced cell viability
same,number of cancer cell colonies,[5],significantly reduced
same,size of cancer cell spheroid,[6],significantly reduced
same,tumorsphere diameter,[7],significantly decreased
